Results published in US20230124492A1, “COMPOSITIONS AND METHODS FOR SUBSTITUTED 7-(PIPERAZIN-1-YL)PYRAZOLO[1,5-A]PYRIMIDINE ANALOGS AS INHIBITORS OF KRAS” (The Board of Regents of the University of Texas System, priority 2019, published 2023).
“Also recorded” adds a separate entry of the source.

Experiments:
cancer cells = test: Proliferation of cancer cells; assay type: cell-based
GTP-/GDP-bound HRAS = GTP-/GDP-bound HRAS (Homo sapiens, UniProt P01112); test: Binding of lead compound to GTP-/GDP-bound HRAS
KRAS effector binding = KRAS effector binding (Homo sapiens, UniProt P01116); test: Effector (Raf) binding to KRAS; assay type: biochemical
GTP-KRAS = GTP-KRAS (Homo sapiens, UniProt P01116); test: Binding of lead compound to GTP-KRAS; conditions: active GTP-bound KRAS
[1] = tested on: KRAS-mediated MAPK signaling; test: KRAS-mediated MAPK signaling; assay type: cell-based
KRAS = KRAS (Homo sapiens, UniProt P01116, G12D); test: Microscale thermophoresis (MST) binding affinity to KRAS (Table 1); conditions: 100 nM labeled KRAS, read-out: kD (dissociation constant)
Experimental: Measurement of compound binding affinity to KKRAS using microscale thermophoresis (MST). MST is based on the movement of molecules in response to temperature gradient. […] KRAS was buffer-exchanged in the labeling buffer (40 mM HEPES, pH 7.5, 5 mM MgCl2, and 500 mM NaCl) using a spin column (provided in the kit) The concentration of the eluted protein was adjusted (10 to 20 μM) and 2-3 fold concentration of the dye (in labeling buffer) was added (200 μL final volume), The solution was incubated for 30 minutes at room temperature in the dark. Labeled KRAS was purified using the column provided in the kit or MST measurements, 16 point serial dilutions of ligands were made in MST Assay Buffer (40 mM HEPES, pH 7.5, 5 mM MgCl2, 100 mM NaCl+0.05% Tween-20+2-4% DMSO) and added to 100 nM KRAS. The solutions were loaded in capillaries and measurements were done using 20% LED power and 40% MST power. The data were fit in Igor Pro using Hill equation or the function in the instrument software.
Microscale thermophoresis (MST) assays were used to measure the affinity of lead compound analogs for KRAS. In a typical experiment, 100 nM KRAS labeled with a dye amine-reactive red NT-647 from NanoTemper) was mixed with different concentrations of ligand and incubated in a binding buffer (40 mM HEPES, pH 7.5, 5 mM MgCl2, 150 mM NaCl, 0.05% polysorbate 20, and 2% DMSO) at room temperature for 10 min before being loaded into a capillary. Thermophoresis is carried out and dissociation constant calculated by monitoring changes in fluorescence intensity. A monolith NT.115 Reader from NanoTemper can be used for MST experiments, with 40% MST and 20% LED power.
Dissociation constants (IQ)) calculated from the thermophoresis results of selected compounds according to the present disclosure are presented in Table 1 below.
Note: For FIGS. 1A-H 1 (as well as one of the curves in FIGS. 2A-I), dissociation constant (Kd) was determined using either Microscale Thermophoresis (MST) or Intrinsic Fluorescence (IF) assay. MST assay uses fluorescence to monitor movement of molecules in response to temperature gradient created by infrared laser.

GTP-/GDP-bound NRAS = GTP-/GDP-bound NRAS (Homo sapiens, UniProt P01111); test: Binding of lead compound to GTP-/GDP-bound NRAS
GDP-KRAS = GDP-KRAS (Homo sapiens, UniProt P01116); test: Binding of lead compound to GDP-KRAS (inactive KRAS); conditions: GDP-bound
Sequence of GDP-KRAS (P01116 1-188 isoform P01116-2): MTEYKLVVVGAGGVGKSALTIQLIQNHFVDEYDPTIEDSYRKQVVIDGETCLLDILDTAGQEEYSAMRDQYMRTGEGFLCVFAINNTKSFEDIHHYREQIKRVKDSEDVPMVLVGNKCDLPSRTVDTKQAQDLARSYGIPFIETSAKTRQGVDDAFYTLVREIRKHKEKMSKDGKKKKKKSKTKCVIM

Sequence of KRAS effector binding (P01116 1-188 isoform P01116-2): as above
Sequence of GTP-KRAS (P01116 1-188 isoform P01116-2): as above
Sequence of GTP-/GDP-bound NRAS (P01111 whole entry): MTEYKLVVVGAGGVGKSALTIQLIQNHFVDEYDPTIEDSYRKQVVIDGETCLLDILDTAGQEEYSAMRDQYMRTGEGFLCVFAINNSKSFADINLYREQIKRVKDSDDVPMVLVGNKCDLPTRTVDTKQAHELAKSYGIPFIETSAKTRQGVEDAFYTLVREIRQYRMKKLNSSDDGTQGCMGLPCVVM
Sequence of GTP-/GDP-bound HRAS (P01112 whole entry): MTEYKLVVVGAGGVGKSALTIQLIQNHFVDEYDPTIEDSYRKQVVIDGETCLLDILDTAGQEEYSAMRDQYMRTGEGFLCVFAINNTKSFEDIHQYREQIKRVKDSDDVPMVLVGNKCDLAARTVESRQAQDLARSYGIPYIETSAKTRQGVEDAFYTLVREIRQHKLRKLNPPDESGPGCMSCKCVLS
Sequence of KRAS (P01116 whole entry G12D): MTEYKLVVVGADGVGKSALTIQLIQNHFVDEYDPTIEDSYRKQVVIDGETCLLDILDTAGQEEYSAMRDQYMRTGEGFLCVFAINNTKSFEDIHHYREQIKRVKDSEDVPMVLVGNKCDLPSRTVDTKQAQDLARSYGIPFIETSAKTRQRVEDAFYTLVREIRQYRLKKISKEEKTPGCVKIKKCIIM

## Cc1nn2c(N3CCN(CCO)CC3)cc(-c3ccccc3)nc2c1-c1ccccc1 [Compound C1]
Cancer cells
  Effect on proliferation of cancer cells: inhibit
GTP-/GDP-bound HRAS
  Affinity for GTP-/GDP-bound HRAS: much weaker affinity; also recorded: does not bind
KRAS effector binding
  Effect on effector binding: significantly reduces; also recorded: disrupt
GTP-KRAS
  Affinity for GTP-KRAS: sub micromolar affinity; also recorded: high affinity
[1]
  Effect on KRAS-mediated MAPK signaling / signal transduction through KRAS: inhibits; also recorded: reduce
KRAS
  Kd: 0.87 ± 0.18 µM
GTP-/GDP-bound NRAS
  Affinity for GTP-/GDP-bound NRAS: much weaker affinity; also recorded: does not bind
GDP-KRAS
  Affinity for GDP-KRAS (inactive KRAS): much weaker affinity; also recorded: does not bind
